Literature values in patent publication US12064484B2, “Compositions for introducing RNA into cells” (ETHRIS GMBH, priority 2013, dated 2024).

System: cell culture
Conditions: cholesterol-polyamine carbamates

Compound | reporter gene expression (beta galactosidase plasmid DNA)
CC(C)CCCC(C)C1CCC2C3CC=C4CC(OC(=O)NCCNCCCNCCN)CCC4(C)C3CCC12C (centres unmarked) [ethyl/propyl/ethyl] | three- to tenfold less efficient
CC(C)CCCC(C)C1CCC2C3CC=C4CC(OC(=O)NCCCNCCCCNCCCN)CCC4(C)C3CCC12C (centres unmarked) [propyl/butyl/propyl] | by far the highest reporter gene expression
